Data from ChEMBL document CHEMBL4665836, “Overcoming β-Lactam resistance in Pseudomonas aeruginosa using non-canonical tobramycin-based antibiotic adjuvants” (2020).

Tests used:
Type in all cases: functional
Pseudomonas aeruginosa [1] = assay: Potentiation of ceftazidime-induced antibacterial activity against carbapenem-resistant Pseudomonas aeruginosa 108590 clinical isolate assessed as ceftazidime MIC at 8 uM by checkerboard assay (reference value: 32 ug/ml)
Pseudomonas aeruginosa [2] = assay: Potentiation of ceftazidime-induced antibacterial activity against carbapenem-resistant Pseudomonas aeruginosa 108590 clinical isolate assessed as fold reduction in ceftazidime MIC at 8 uM in presence of beta-lactamase inhibitor, avi-bactam
Pseudomonas aeruginosa [3] = assay: Potentiation of aztreonam-induced antibacterial activity against carbapenem-resistant Pseudomonas aeruginosa 260-97103 clinical isolate assessed as aztreonam MIC at 8 uM by checkerboard assay (reference value: 64 ug/ml)
Pseudomonas aeruginosa [4] = assay: Potentiation of imipenem-induced antibacterial activity against carbapenem-resistant Pseudomonas aeruginosa 260-97103 clinical isolate assessed as imipenem MIC at 8 uM by checkerboard assay (reference value: 16 ug/ml)
Pseudomonas aeruginosa [5] = assay: Potentiation of aztreonam-induced antibacterial activity against carbapenem-resistant Pseudomonas aeruginosa 264-104354 clinical isolate assessed as aztreonam MIC at 8 uM by checkerboard assay (reference value: 32 ug/ml)
Pseudomonas aeruginosa [6] = assay: Potentiation of imipenem-induced antibacterial activity against carbapenem-resistant Pseudomonas aeruginosa 262-101856 clinical isolate assessed as imipenem MIC at 8 uM by checkerboard assay (reference value: 32 ug/ml)
Pseudomonas aeruginosa [7] = assay: Potentiation of aztreonam-induced antibacterial activity against carbapenem-resistant Pseudomonas aeruginosa 88949 clinical isolate assessed as aztreonam MIC at 8 uM by checkerboard assay (reference value: 32 ug/ml)
Pseudomonas aeruginosa [8] = assay: Potentiation of aztreonam-induced antibacterial activity against carbapenem-resistant Pseudomonas aeruginosa 107092 clinical isolate assessed as fold reduction in aztreonam MIC at 8 uM in presence of beta-lactamase inhibitor, avi-bactam
Pseudomonas aeruginosa [9] = assay: Potentiation of imipenem-induced antibacterial activity against carbapenem-resistant Pseudomonas aeruginosa 264-104354 clinical isolate assessed as imipenem MIC at 8 uM by checkerboard assay (reference value: 16 ug/ml)
Pseudomonas aeruginosa [10] = assay: Potentiation of aztreonam-induced antibacterial activity against wild type Pseudomonas aeruginosa PAO1 assessed as aztreonam MIC at 8 uM by checkerboard assay (reference value: 4 ug/ml)
Pseudomonas aeruginosa [11] = assay: Potentiation of ceftazidime-induced antibacterial activity against wild type Pseudomonas aeruginosa PAO1 assessed as ceftazidime MIC at 8 uM by checkerboard assay (reference value: 2 ug/ml)
Pseudomonas aeruginosa [12] = assay: Potentiation of ceftazidime-induced antibacterial activity against carbapenem-resistant Pseudomonas aeruginosa 101885 clinical isolate assessed as ceftazidime MIC at 8 uM by checkerboard assay (reference value: 8 ug/ml)
Pseudomonas aeruginosa [13] = assay: Potentiation of imipenem-induced antibacterial activity against carbapenem-resistant Pseudomonas aeruginosa 88949 clinical isolate assessed as fold reduction in imipenem MIC at 8 uM in presence of beta-lactamase inhibitor, rele-bactam
Pseudomonas aeruginosa [14] = assay: Potentiation of imipenem-induced antibacterial activity against carbapenem-resistant Pseudomonas aeruginosa 109084 clinical isolate assessed as fold reduction in imipenem MIC at 8 uM in presence of beta-lactamase inhibitor, rele-bactam
Pseudomonas aeruginosa [15] = assay: Antibacterial activity against wild type Pseudomonas aeruginosa PAO1
Pseudomonas aeruginosa [16] = assay: Potentiation of ceftazidime-induced antibacterial activity against carbapenem-resistant Pseudomonas aeruginosa 100036 clinical isolate assessed as ceftazidime MIC at 8 uM by checkerboard assay (reference value: 8 ug/ml)
Pseudomonas aeruginosa [17] = assay: Potentiation of imipenem-induced antibacterial activity against carbapenem and colistin-resistant Pseudomonas aeruginosa 91433 clinical isolate assessed as imipenem MIC at 8 uM by checkerboard assay (reference value: 8 ug/ml)
Pseudomonas aeruginosa [18] = assay: Potentiation of aztreonam-induced antibacterial activity against carbapenem-resistant Pseudomonas aeruginosa 100036 clinical isolate assessed as aztreonam MIC at 8 uM by checkerboard assay (reference value: 16 ug/ml)
Pseudomonas aeruginosa [19] = assay: Potentiation of ceftazidime-induced antibacterial activity against carbapenem-resistant Pseudomonas aeruginosa PAO200 harboring mexAB-oprM efflux deficient mutant assessed as ceftazidime MIC at 8 uM by checkerboard assay (reference value: 1 ug/ml)
Pseudomonas aeruginosa [20] = assay: Potentiation of ceftazidime-induced antibacterial activity against carbapenem and colistin-resistant Pseudomonas aeruginosa 114228 clinical isolate assessed as ceftazidime MIC at 8 uM by checkerboard assay (reference value: 8 ug/ml)
Pseudomonas aeruginosa [21] = assay: Potentiation of ceftazidime-induced antibacterial activity against carbapenem-resistant Pseudomonas aeruginosa 88949 clinical isolate assessed as ceftazidime MIC at 8 uM by checkerboard assay (reference value: 64 ug/ml)
Pseudomonas aeruginosa [22] = assay: Potentiation of ceftazidime-induced antibacterial activity against carbapenem and colistin-resistant Pseudomonas aeruginosa 101243 clinical isolate assessed as ceftazidime MIC at 8 uM by checkerboard assay (reference value: 64 ug/ml)
Pseudomonas aeruginosa [23] = assay: Antibacterial activity against Pseudomonas aeruginosa PAO200 harboring mexAB-oprM efflux deficient mutant
Pseudomonas aeruginosa [24] = assay: Potentiation of aztreonam-induced antibacterial activity against carbapenem-resistant Pseudomonas aeruginosa 109084 clinical isolate assessed as aztreonam MIC at 8 uM by checkerboard assay (reference value: 64 ug/ml)
Pseudomonas aeruginosa [25] = assay: Potentiation of aztreonam-induced antibacterial activity against carbapenem and colistin-resistant Pseudomonas aeruginosa 91433 clinical isolate assessed as aztreonam MIC at 8 uM by checkerboard assay (reference value: 16 ug/ml)
Pseudomonas aeruginosa [26] = assay: Potentiation of ceftazidime-induced antibacterial activity against carbapenem-resistant Pseudomonas aeruginosa 109084 clinical isolate assessed as ceftazidime MIC at 8 uM by checkerboard assay (reference value: 64 ug/ml)
Pseudomonas aeruginosa [27] = assay: Potentiation of aztreonam-induced antibacterial activity against carbapenem-resistant Pseudomonas aeruginosa 107092 clinical isolate assessed as aztreonam MIC at 8 uM by checkerboard assay (reference value: 64 ug/ml)
Pseudomonas aeruginosa [28] = assay: Potentiation of ceftazidime-induced antibacterial activity against carbapenem-resistant Pseudomonas aeruginosa PAO750 harboring and mexAB-oprM/mexCD-oprJ/mexEF-oprN/mexJK/mexXY/opmH efflux deficient mutant assessed as ceftazidime MIC at 8 uM by checkerboard assay (reference value: 0.5 ug/ml)
Pseudomonas aeruginosa [29] = assay: Potentiation of ceftazidime-induced antibacterial activity against carbapenem-resistant Pseudomonas aeruginosa 107092 clinical isolate assessed as fold reduction in ceftazidime MIC at 8 uM in presence of beta-lactamase inhibitor, avi-bactam
Pseudomonas aeruginosa [30] = assay: Potentiation of imipenem-induced antibacterial activity against carbapenem-resistant Pseudomonas aeruginosa 108590 clinical isolate assessed as fold reduction in imipenem MIC at 8 uM in presence of beta-lactamase inhibitor, rele-bactam
Pseudomonas aeruginosa [31] = assay: Potentiation of ceftazidime-induced antibacterial activity against carbapenem-resistant Pseudomonas aeruginosa 262-101856 clinical isolate assessed as ceftazidime MIC at 8 uM by checkerboard assay (reference value: 16 ug/ml)
Pseudomonas aeruginosa [32] = assay: Potentiation of imipenem-induced antibacterial activity against carbapenem-resistant Pseudomonas aeruginosa 259-96918 clinical isolate expressing MBL assessed as imipenem MIC at 8 uM by checkerboard assay (reference value: 64 ug/ml)
Pseudomonas aeruginosa [33] = assay: Potentiation of imipenem-induced antibacterial activity against carbapenem-resistant Pseudomonas aeruginosa 86052 clinical isolate assessed as fold reduction in imipenem MIC at 8 uM in presence of beta-lactamase inhibitor, rele-bactam

Row | SMILES | MIC (Pseudomonas aeruginosa [1]) [µg/mL] | fold change (FC) (Pseudomonas aeruginosa [2]) | MIC (Pseudomonas aeruginosa [3]) [µg/mL] | MIC (Pseudomonas aeruginosa [4]) [µg/mL] | MIC (Pseudomonas aeruginosa [5]) [µg/mL] | MIC (Pseudomonas aeruginosa [6]) [µg/mL] | MIC (Pseudomonas aeruginosa [7]) [µg/mL] | fold change (FC) (Pseudomonas aeruginosa [8]) | MIC (Pseudomonas aeruginosa [9]) [µg/mL] | MIC (Pseudomonas aeruginosa [10]) [µg/mL] | MIC (Pseudomonas aeruginosa [11]) [µg/mL] | MIC (Pseudomonas aeruginosa [12]) [µg/mL] | fold change (FC) (Pseudomonas aeruginosa [13]) | fold change (FC) (Pseudomonas aeruginosa [14]) | MIC (Pseudomonas aeruginosa [15]) [µg/mL] | MIC (Pseudomonas aeruginosa [16]) [µg/mL] | MIC (Pseudomonas aeruginosa [17]) [µg/mL] | MIC (Pseudomonas aeruginosa [18]) [µg/mL] | MIC (Pseudomonas aeruginosa [19]) [µg/mL] | MIC (Pseudomonas aeruginosa [20]) [µg/mL] | other results
1 | NC[C@H]1O[C@H](O[C@H]2[C@H](OCCCCc3cn(CCCCO[C@@H]4[C@@H](O)[C@H](N)C[C@H](N)[C@H]4O[C@H]4O[C@H](CN)[C@@H](O)C[C@H]4N)nn3)[C@@H](O)[C@H](N)C[C@@H]2N)[C@H](N)C[C@@H]1O.O=C(O)C(F)(F)F.O=C(O)C(F)(F)F.O=C(O)C(F)(F)F.O=C(O)C(F)(F)F.O=C(O)C(F)(F)F.O=C(O)C(F)(F)F.O=C(O)C(F)(F)F.O=C(O)C(F)(F)F | 32 | 16 | 16 | 16 | 8 | 4 | 16 | 16 | 8 | 1 | 0.5 | 1 | 16 | 16 | > 128 | 4 | 8 | 4 | 0.25 | 1 | MIC (Pseudomonas aeruginosa [21]): 64 µg/mL; MIC (Pseudomonas aeruginosa [22]): 32 µg/mL; MIC (Pseudomonas aeruginosa [23]): > 128 µg/mL; MIC (Pseudomonas aeruginosa [24]): 16 µg/mL; MIC (Pseudomonas aeruginosa [25]): 2 µg/mL; MIC (Pseudomonas aeruginosa [26]): 32 µg/mL; MIC (Pseudomonas aeruginosa [27]): 32 µg/mL; MIC (Pseudomonas aeruginosa [28]): 0.13 µg/mL; fold change (FC) (Pseudomonas aeruginosa [29]): 16; fold change (FC) (Pseudomonas aeruginosa [30]): 16; MIC (Pseudomonas aeruginosa [31]): 16 µg/mL; MIC (Pseudomonas aeruginosa [32]): 64 µg/mL; fold change (FC) (Pseudomonas aeruginosa [33]): 16
2 | N=C(N)NC[C@H]1O[C@H](O[C@H]2[C@H](OCCCCCCCCCCCCN3CCN(c4cc5c(cc4F)c(=O)c(C(=O)O)cn5C4CC4)CC3)[C@@H](O[C@H]3O[C@H](CO)[C@@H](O)[C@H](NC(=N)N)[C@H]3O)[C@H](NC(=N)N)C[C@@H]2NC(=N)N)[C@H](NC(=N)N)C[C@@H]1O.O=C(O)C(F)(F)F.O=C(O)C(F)(F)F.O=C(O)C(F)(F)F.O=C(O)C(F)(F)F.O=C(O)C(F)(F)F.O=C(O)C(F)(F)F | 2 | 16 | 8 | 8 | 32 | 16 | 32 | 16 | 16 | 0.5 | 0.25 | 2 | 16 | 16 | 32 | 6 | 8 | 16 | 0.25 | 2 | MIC (Pseudomonas aeruginosa [21]): 32 µg/mL; MIC (Pseudomonas aeruginosa [22]): 16 µg/mL; MIC (Pseudomonas aeruginosa [23]): 16 µg/mL; MIC (Pseudomonas aeruginosa [24]): 32 µg/mL; MIC (Pseudomonas aeruginosa [25]): 16 µg/mL; MIC (Pseudomonas aeruginosa [26]): 32 µg/mL; MIC (Pseudomonas aeruginosa [27]): 32 µg/mL; MIC (Pseudomonas aeruginosa [28]): 0.25 µg/mL; fold change (FC) (Pseudomonas aeruginosa [29]): 16; fold change (FC) (Pseudomonas aeruginosa [30]): 16; MIC (Pseudomonas aeruginosa [31]): 16 µg/mL; MIC (Pseudomonas aeruginosa [32]): 64 µg/mL; fold change (FC) (Pseudomonas aeruginosa [33]): 16
